According to PMC8129715 (CPT: Pharmacometrics & Systems Pharmacology, 2021):
Like-named read-outs stand apart in the source and are kept apart here.

Tests used:
[1] = In vitro plasma protein binding; format: in vitro ADME, human; conditions: unpublished data reported by Eisai Inc.
[2] = capsule, cited from earlier work; for Observed AUC(0-t) / Observed Cmax: geometric mean; for Observed Cmax: healthy individuals
[3] = system: CYP3A; experiment: In vitro time-dependent inhibition; format: in vitro ADME; conditions: unpublished data reported by Eisai Inc.
[4] = multiple 10 mg oral doses, capsule, cited from earlier work
[5] = single 10 mg oral dose, IR tablet, ref study E2006-A001-008 (NCT02089412), cited from earlier work; for Observed Cmax: geometric mean
[6] = cited from earlier work
[7] = system: CYP2B6; experiment: In vitro induction; format: in vitro ADME; conditions: unpublished data reported by Eisai Inc.
[8] = Biliary excretion in rats; format: in vivo
[9] = human mass-balance study, cited from earlier work
[10] = Human blood to plasma concentration ratio; format: in vitro ADME
[11] = system: other CYP isoforms (1A2, 2A6, 2B6, 2C8, 2C9, 2C19, 2D6, 2E1, 2J2, 3A5, 4F12); experiment: Metabolism by recombinant human CYP isoforms; format: in vitro ADME; conditions: 37°C for 20 min; unpublished data reported by Eisai Inc.
[12] = system: CYP3A; conditions: cited from earlier work
[13] = PBPK simulation of lemborexant PK in healthy individuals; parameters: species or system human
[14] = system: breast cancer resistance protein; conditions: in vitro; cited from earlier work
[15] = biological target: CYP3A4 (Homo sapiens, UniProt P08684); experiment: Metabolism by recombinant human CYP isoforms; format: in vitro ADME; conditions: 37°C for 20 min; unpublished data reported by Eisai Inc.
[16] = system: CYP2B6; conditions: lemborexant 10 mg q.d. for 13 days, bupropion 75 mg on day 10, healthy adults; cited from earlier work
[17] = cited from earlier work; remark: listed apart in the source
[18] = system: P-glycoprotein; conditions: in vitro; cited from earlier work
[19] = system: cryopreserved human hepatocytes; experiment: Metabolism in cryopreserved human hepatocytes with CYP inhibitors; format: in vitro ADME; conditions: 1-aminobenzotriazole, troleandomycin and ketoconazole
[20] = single 10 mg oral dose, IR tablet, DDI study, cited from earlier work
[21] = pKa by capillary electrophoresis method; format: physicochemical
[22] = system: CYP3A4; experiment: In vitro induction; format: in vitro ADME; conditions: unpublished data reported by Eisai Inc.
[23] = co-administration with rifampicin 600 mg q.d.
[24] = lemborexant 10 mg with fluconazole 200 mg q.d.
[25] = multiple 10 mg oral doses, day 1
[26] = multiple 10 mg oral doses, day 14
[27] = single 10 mg oral dose, IR tablet, fasted, food effect study
[28] = single 10 mg oral dose, IR tablet, fed
[29] = single 10 mg oral dose, solution vs capsule
[30] = single 100 mg oral dose, solution vs capsule

Chain of CYP3A4 (Homo sapiens, UniProt P08684) (P08684 whole entry, canonical isoform): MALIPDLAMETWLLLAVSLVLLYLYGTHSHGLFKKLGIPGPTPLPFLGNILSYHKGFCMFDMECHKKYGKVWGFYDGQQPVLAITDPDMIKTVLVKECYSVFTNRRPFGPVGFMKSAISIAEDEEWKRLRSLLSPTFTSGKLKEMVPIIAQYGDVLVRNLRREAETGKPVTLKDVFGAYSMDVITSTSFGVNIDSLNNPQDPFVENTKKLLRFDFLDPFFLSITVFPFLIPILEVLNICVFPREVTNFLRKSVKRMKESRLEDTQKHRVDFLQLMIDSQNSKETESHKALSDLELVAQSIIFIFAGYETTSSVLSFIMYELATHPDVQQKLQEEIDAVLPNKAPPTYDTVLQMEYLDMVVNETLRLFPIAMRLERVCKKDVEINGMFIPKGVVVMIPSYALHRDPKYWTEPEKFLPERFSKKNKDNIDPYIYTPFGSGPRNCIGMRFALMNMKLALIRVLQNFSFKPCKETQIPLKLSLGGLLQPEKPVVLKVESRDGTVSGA

## Cc1ncc(OC[C@@]2(c3cccc(F)c3)C[C@H]2C(=O)Nc2ccc(F)cn2)c(C)n1 [lemborexant]
[1]
  Main binding protein in plasma: human serum albumin, low‐density lipoprotein, and high‐density lipoprotein
[2]; single 2.5 mg oral dose
  Observed AUC(0-t): 74.4 ng·h/mL
  Observed Cmax: 0.0149 µg/mL
[2]; single 10 mg oral dose
  Observed AUC(0-t): 274 ng·h/mL
  Observed Cmax: 0.032 µg/mL
[2]; single 10 mg oral dose, median
  Observed Tmax: 1.00 h
[2]; single 100 mg oral dose
  Observed AUC(0-t): 4,300 ng∙h/ml
  Observed Cmax: 0.242 µg/mL
[3]
  time-dependent inhibition on CYP3A: weak
[4]; day 1, geometric mean
  Observed AUC(0-t): 0.182 µg·h/mL
  Observed Cmax: 0.028 µg/mL
[4]; day 1, median
  Observed Tmax: 3.25 h
[4]; day 14, geometric mean
  Observed AUC(0-t): 0.321 µg·h/mL
  Observed Cmax: 0.0448 µg/mL
[4]; day 14, median
  Observed Tmax: 1.75 h
[5]; fasted, food effect study
  Observed Cmax: 0.0571 µg/mL
[5]; fasted, food effect study, median
  Observed Tmax: 1.00 h
[5]; fed (standard high-fat meal)
  Observed Cmax: 0.0441 µg/mL
[6]; human plasma, 100–1000 ng/ml, no concentration dependency
  in vitro plasma protein binding (bound): 87.4–88.7%
[6]; mean value based on lemborexant 100 ng/ml
  Fu (fraction unbound in plasma): 0.113
[7]
  inductive effect on CYP2B6: weak
[8]
  biliary excretion of lemborexant: no biliary excretion
[9]; 10 mg capsule
  CL/F (apparent oral clearance): 32.8 L/h
[9]; [14C]lemborexant 10 mg
  unchanged lemborexant in feces: 13.0 % of dose
  unchanged lemborexant in urine: not detected
[10]; B:P (blood-to-plasma partition ratio), mean, mean value from unpublished data reported by Eisai Inc.
  blood plasma ratio: 0.636
[10]; human blood to plasma concentration ratio (B:P), concentration range 100–1000 ng/ml, unpublished data reported by Eisai Inc.
  blood plasma ratio: 0.61 to 0.656
[11]
  residual ratio after incubation with other recombinant CYP isoforms: ≥ 81%
[12]; co-administered with itraconazole and fluconazole
  increase in AUCR with strong and moderate CYP3A inhibitors: ≤ 3.8 fold
[12]; [23]
  reduction of lemborexant AUC(0-inf): 97%
  reduction of lemborexant Cmax: 92%
[12]; [24]
  increase in lemborexant AUC(0-t): 3.8 fold
  increase in lemborexant Cmax: 1.6 fold
[12]; lemborexant 10 mg with itraconazole 200 mg q.d.
  increase in lemborexant Cmax: 1.36 fold
[13]; food effect study 008, 10 mg IR tablet
  fold difference (predicted/observed) of Cmax ratio for fasted and fed conditions: 0.768
[13]; [25]
  Fold difference, predicted/observed, AUC(0-t): 0.92
  Fold difference, predicted/observed, Cmax: 0.86
[13]; [26]
  Fold difference, predicted/observed, AUC(0-t): 1.02
  Fold difference, predicted/observed, Cmax: 0.73
[13]; single 2.5 mg oral dose, solution vs capsule
  Fold difference, predicted/observed, AUC(0-t): 0.89
[13]; single 10 mg oral dose, IR tablet
  Fold difference, predicted/observed, AUC(0-t): 0.80
[13]; [27]
  Fold difference, predicted/observed, AUC(0-t): 0.85
  Fold difference, predicted/observed, Cmax: 0.45
[13]; [28]
  Fold difference, predicted/observed, AUC(0-t): 0.71
  Fold difference, predicted/observed, Cmax: 0.34
[13]; [29]
  Fold difference, predicted/observed, AUC(0-t): 1.29
  Fold difference, predicted/observed, Cmax: 0.85
[13]; [30]
  Fold difference, predicted/observed, AUC(0-t): 0.76
  Fold difference, predicted/observed, Cmax: 1.08
[14]
  transport of lemborexant via breast cancer resistance protein: negligible
[15]
  residual ratio after incubation with recombinant CYP3A4: 30%
[16]
  decrease in plasma exposures of S-bupropion: 45.5%
[17]; doses of 5 mg and above
  clinical efficacy (sleep): clinically meaningful sleep benefits
[17]; lemborexant exposures greater than 10 mg
  somnolence adverse events: increased risk of somnolence adverse events
[18]
  transport of lemborexant via P-glycoprotein: negligible
[19]
  lemborexant metabolism in human hepatocytes in presence of CYP inhibitors: completely inhibited
[20]; geometric mean
  Observed AUC(0-t): 0.411 µg·h/mL
[20]; median
  Observed Tmax: 1.00 h
[20]; healthy individuals, geometric mean
  Observed Cmax: 0.0543 µg/mL
[21]
  pKa: < 3.5
[22]
  inductive effect on CYP3A4: weak
